# Experimental data as given in PMC7765409 (International Journal of Molecular Sciences, 2020).
# Read-outs that look alike come from different tables or passages of the source.
# Assays:
# DGAT2 mRNA = test system: DGAT2 mRNA; parameters: method as in PMID 30254132; conditions: after 4 and 18 h treatment with thapsigargin and free-fatty acids; cited from earlier work
# FXR target genes = assay: transcriptomic (RNA-seq) analysis of OCA pre-incubated TG/FA-treated hiPSC-Hep; type: cell-based, human; conditions: TG/FA+OCA vs TG/FA
# Protocol: The phenotypic assay was measured and quantified by BODIPY 493/503-stained neutral lipid droplets multiplexed with Hoechst dye to detect viable cell count, as shown by the process in Supplementary Figure S2. Obeticholic acid (OCA), a clinically advanced therapeutic and farnesoid X receptor (FXR) agonist evaluated in phase III trials for the treatment of NASH [40], was used as an inhibitor control of lipid accumulation (Figure 1A). […] Our results are in accordance with therapeutic plasma concentrations of OCA (0.290 µM) and with studies performed in a human liver in vitro system (0.5 µM). […] FXR target genes, including fibroblast growth factor 19 (FGF19), solute carrier family 51 subunit Beta (SLC51B), cytochrome P450 7A1 (CYP7A1) and perilipin 1 (PLIN1) are regulated by OCA under our treatment conditions.
# Z’ = 1 − (3 SD of sample group + 3 SD of negative control)/(mean of sample group−mean of negative control). FA/TG-treated wells were defined as general sample group and BSA-treated wells were defined as negative controls for calculating Z’-factor. In our assay, the Z’ criteria were as follows: Z’ = 0.5–1.0 corresponds to an excellent assay; Z’ = 0–0.5 corresponds to a suboptimal assay; Z’ < 0 corresponds to an unsuccessful assay. Percent inhibition of lipid accumulation was calculated based on the positive (BSA-treated) and negative (FA/TG-treated) controls on each plate: % inhibition = 100 * [(compound value–AVEneg)/(AVEpos–AVEneg)]. RNA-seq data were analyzed by iPathwayGuide (Advaita Bioinformatics: http://www.advaitabio.com/ipathwayguide.html) as described in [35]. Differences between two groups were analyzed using Student’s t-tests. Fold-change expression values obtained from RT-qPCR were analyzed by one-way analysis of variance (ANOVA) followed by post hoc comparisons of group means with the Tukey’s multiple comparison tests at an overall confidence level of 95% using Prism software (GraphPad).
# [1] = parameters: method as in PMID 29226620; conditions: cited from earlier work
# [2] = test system: lipid droplet accumulation in TG/FA-treated hiPSC-Hep; assay: hiPSC-Hep ER-stress (TG/FA) induced lipid droplet accumulation high-content assay, integrated spot signal (BODIPY 493/503); type: cell-based, human; conditions: for IC50: Homo sapiens, cells pre-treated 24 h and co-treated additional 18 h with TG/FA
# Protocol: Cryopreserved hiPSC-derived hepatocytes (iCell Hepatocytes 2.0; Cellular Dynamics International Madison, WI) plated at a density of 36 K/well in 384-well on collagen I coated Corning Biocoat 384-well plates (BD Biosciences, 101306), were cultured to promote hepatic differentiation and maturation into hepatic-like cells as previously described. Hepatocytes were plated according to the manufacturer’s protocol in a volume of 50 µL/well using BioTek^TM Microflo^TM select dispenser (#7170011, BioTek Instruments) for high-throughput and high-content analysis assay (HT/HCA) drug discovery. After plating cells were cultured according to vendor specifications in a cell culture incubator at 37 °C, 5% CO2 for 3–4 h. Then, 40 µL spent medium was aspirated using multi-channel automated pipette handling system (Integra ViaFlo 96/384) and replaced with 40 µL (80% exchange) of fresh plating medium. Approximately 24 h post-plating 80% of medium was replaced every day thereafter. At day 5 of differentiation, 40 µL/well spent medium was replaced with maintenance medium (MM) consisting of William’s E medium (Thermo Fisher Scientific) supplemented with 0.1 µM dexamethasone and hepatocyte maintenance supplement pack (Thermo Fisher Scientific) for an additional 2–3 days before HCA. The overview of automated HT system for hiPSC-derived hepatocytes differentiation, staining and image analysis for phenotypic screening is depicted in Figure S2. Primary screening hit confirmation and dose response studies were performed on different batches of hiPSC-derived hepatocytes.
# To induce hepatic triglycerides (TAG) accumulation, before staining, cells were treated with 20 μL of 2× FA mixture, consisting of different proportions of oleic acid (OA-BSA, 25 µM, Sigma, #O3008), palmitic acid (PA-BSA, 200 µM, Agilent Technologies, #102720100) and thapsigargin (TG, 1 µM, Abcam, #120286) with a total volume of 40 μL/well. The TG/FA mixture was dispensed with BioTek^TM Microflo^TM select dispenser (#7170011, BioTek Instruments) and incubated for 18 h. Next, to label TAG accumulation stored into cytoplasmic lipid droplets, upon treatment, living cells were washed two times with warm Dulbecco’s Phosphate-Buffered Saline 1X (PBS, Corning, #21-031CV) with a handheld 384-channel electronic pipette device and then incubated for 15 min with a lipophilic dye, BODIPY 493/503 (8 ug/mL Life technologies, #D3922-green), in PBS at 37 °C. BODIPY (493/503) has become the standard dye utilized by scientists to study lipid droplets in live cells. After three washes with PBS cells were fixed with 4% paraformaldehyde methanol-free (PFA, Electron Microscopy Science, #15710) in PBS for 15 min at room temperature (RT). Cell health was monitored by Hoechst 33342 (10 ug/mL, Molecular Probe, #H21492) staining in PBS for nuclear count. After TAG staining the 384-assay plates were loaded in an automated confocal microscope with Opera High Content Imaging System (PerkinElmer, Waltham, MA, USA). Dyes were excited and images were captured on the Hoechst 3342 and Alexa Fluor 488 channels and signals were collected with a long pass filter 410 and 505 nm, for nuclei and TAG, respectively, at objective 20× air objective for HCA. To capture enough cells (>600) for the analysis, eight fields per well were imaged. Hoechst 33342 fluorescence was used to identify the nuclear region and cell counts. To assess intracellular fat deposits, BODIPY 493/503 fluorescence intensity was measured inside the cytoplasm region.
# For the HCA screen, compounds tested for their inhibitory effects, were used as single dose at a 10 μM final concentration of compound in DMSO in each well (0.1% DMSO) in 20 μL of maintenance medium. Prior to compound addition, 30 µL/well of medium was removed from hiPSC-Hep cells screening plates with ViaFlo ([…]). Pre-spotted 80 nL of 10 mM compound were diluted to 20 μM (0.2% DMSO) in 40 μL of maintenance medium in the source 384-well plate. […]
# [3] = test system: palmitic acid-induced lipid accumulation in hiPSC-Hep; assay: palmitic acid-induced lipid accumulation in hiPSC-Hep; type: cell-based, human; conditions: exogenous palmitic acid
# Protocol: (§1) A monolayer of hiPSC-Hep, with hepatocyte-like morphology, gene expression and function, was used as a cell model for induction of steatosis and high-content analysis to detect neutral lipid droplet accumulation and inhibition. […] Incubation of the cells with a saturated fluorescently labeled fatty acid analog confirmed localization into neutral lipid vacuoles (Supplementary Figure S1C–F).
# [4] = test system: oleic acid-induced lipid droplet accumulation in hiPSC-Hep; assay: oleic acid-induced lipid droplet accumulation in hiPSC-Hep; type: cell-based, human; conditions: exogenous oleic acid
# Protocol: as §1
SMILES,effect on DGAT2 expression (DGAT2 mRNA),CYP7A1 gene regulation (FXR target genes),FGF19 gene regulation (FXR target genes),PLIN1 gene regulation (FXR target genes),SLC51B gene regulation (FXR target genes),therapeutic plasma concentrations [1],IC50 ([2]; read-out: half maximal inhibitory concentration (IC50) for reduction of lipid accumulation),IC50 ([2]; read-out: pIC50 for reduction of lipid accumulation (converted)),lipid content of lipid droplet-stained cells ([2]; OCA at 20 µM in TG/FA-treated cells vs BSA-treated control),inhibition of palmitic acid-induced lipid accumulation [3],inhibition of oleic acid-induced lipid droplet accumulation [4],inhibition of oleic acid-induced lipid droplet accumulation ([4]; listed as triacsin C)
"CC[C@H]1[C@@H](O)[C@@H]2[C@H](CC[C@]3(C)[C@@H]([C@H](C)CCC(=O)O)CC[C@@H]23)[C@@]2(C)CC[C@@H](O)C[C@@H]12 [OCA, Obeticholic acid]",significantly inhibited,downregulation,upregulation,upregulation,downregulation,0.290 µM,630 nM,631 nM,reduced lipid content to control levels,–,–,–
CCC/C=C/C/C=C/C=C/C=N/NN=O [Triacsin C],–,–,–,–,–,–,–,–,–,did not inhibit,fully inhibits,completely inhibits
